target: T1, GLP-1R (Homo sapiens, UniProt P43220); assay: EC20 GLP-1(9-36) PAM cAMP assay: dose response of compound in the presence of fixed concentration of GLP-1(9-36); format: cell-based; conditions: dose response of compound in presence of fixed concentration of GLP-1(9-36), GLP-1R CRE-bla CHO-K1 cells, read-out: EC20 GLP-1(9-36) PAM EC50
T1 construct: host or cells: GLP-1R CRE-bla CHO-K1 cells
In short: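 GLP-1R CRE-bla CHO-K1 cells treated 30 min at 37 °C with 12-point compound dose response plus fixed EC20 GLP-1(9-36), with IBMX, in HBSS/HEPES/0.1% BSA pH 7.4. Total cAMP measured by luminescent detection against standard curve; EC50 and Emax from non-linear regression.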

T1 sequence (P43220 24-463): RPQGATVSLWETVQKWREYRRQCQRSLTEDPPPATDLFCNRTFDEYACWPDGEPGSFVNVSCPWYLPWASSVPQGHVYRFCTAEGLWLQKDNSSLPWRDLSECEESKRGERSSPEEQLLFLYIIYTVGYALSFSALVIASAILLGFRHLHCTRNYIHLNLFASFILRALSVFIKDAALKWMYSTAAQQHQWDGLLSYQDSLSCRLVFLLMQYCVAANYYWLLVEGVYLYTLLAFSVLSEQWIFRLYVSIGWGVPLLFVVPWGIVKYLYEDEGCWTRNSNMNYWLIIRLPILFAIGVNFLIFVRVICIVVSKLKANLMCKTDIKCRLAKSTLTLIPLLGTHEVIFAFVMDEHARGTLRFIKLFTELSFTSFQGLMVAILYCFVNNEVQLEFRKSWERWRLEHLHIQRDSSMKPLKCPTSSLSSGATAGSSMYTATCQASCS
T1 sequence (P01275 100-127 partner limits assumed): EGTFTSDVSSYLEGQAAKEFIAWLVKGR

Row | SMILES | EC50
1 | Cc1ccc(C(O)c2ccc(-c3cnc(-c4ccc(C[C@H](NC(=O)c5ccc(C(C)(C)C)s5)C(=O)N[C@H](C)C(=O)O)cc4)nc3)cc2)cc1 (stereo partly drawn) [Compound 1030] | 5000 to 10000 nM
2 | C[C@@H](NC(=O)[C@H](Cc1ccc(-c2ncc(-c3ccc4c(C5CCCCO5)c(O)ccc4c3)cn2)cc1)NC(=O)c1ccc(C(C)(C)C)s1)C(=O)O (stereo partly drawn) [Compound 1031] | 2500 to 5000 nM
3 | C[C@@H](NC(=O)[C@H](Cc1ccc(-c2ncc(-c3cccc(C(=O)Nc4cccc(F)c4)c3)cn2)cc1)NC(=O)c1ccc(C(C)(C)C)s1)C(=O)O [Compound 1032] | 800 to 2500 nM
4 | CC(C)c1cccc(-c2cnc(-c3ccc(C[C@H](NC(=O)c4ccc(C(C)(C)C)s4)C(=O)N[C@H](C)C(=O)O)cc3)nc2)c1 [Compound 1033] | 5000 to 10000 nM
5 | CC(C)c1ccc(-c2cnc(-c3ccc(C[C@H](NC(=O)c4ccc(C(C)(C)C)s4)C(=O)N[C@H](C)C(=O)O)cc3)nc2)cc1 [Compound 1034] | 2500 to 5000 nM
6 | CC(C)Sc1ccc(-c2cnc(-c3ccc(C[C@H](NC(=O)c4ccc(C(C)(C)C)s4)C(=O)N[C@H](C)C(=O)O)cc3)nc2)cc1 [Compound 1035] | 800 to 2500 nM
7 | CCOc1cc(-c2cnc(-c3ccc(C[C@H](NC(=O)c4ccc(C(C)(C)C)s4)C(=O)N[C@H](C)C(=O)O)cc3)nc2)cc(C(F)(F)F)c1 [Compound 1036] | 2500 to 5000 nM
8 | CCCCN(Cc1ccc(OC)cc1)S(=O)(=O)c1ccc(-c2cnc(-c3ccc(C[C@H](NC(=O)c4ccc(C(C)(C)C)s4)C(=O)N[C@H](C)C(=O)O)cc3)nc2)cc1 [Compound 1037] | 800 to 2500 nM
9 | CC(C)COc1ncc(-c2cnc(-c3ccc(C[C@H](NC(=O)c4ccc(C(C)(C)C)s4)C(=O)N[C@H](C)C(=O)O)cc3)nc2)cc1Cl [Compound 1038] | 2500 to 5000 nM
10 | CCCCOc1cc(-c2cnc(-c3ccc(C[C@H](NC(=O)c4ccc(C(C)(C)C)s4)C(=O)N[C@H](C)C(=O)O)cc3)nc2)cc(Cl)c1OC(C)C [Compound 1039] | 800 to 2500 nM
11 | C[C@@H](NC(=O)[C@H](Cc1ccc(-c2ncc(-c3ccc(OCc4ccccc4)nc3)cn2)cc1)NC(=O)c1ccc(C(C)(C)C)s1)C(=O)O [Compound 1040] | 5000 to 10000 nM
12 | C[C@@H](NC(=O)[C@H](Cc1ccc(-c2ncc(-c3cc(OCc4ccccc4)ncc3F)cn2)cc1)NC(=O)c1ccc(C(C)(C)C)s1)C(=O)O [Compound 1041] | 800 to 2500 nM
13 | Cc1cc(C)cc(-c2cnc(-c3ccc(C[C@H](NC(=O)c4ccc(C(C)(C)C)s4)C(=O)N[C@H](C)C(=O)O)cc3)nc2)c1 [Compound 1042] | 5000 to 10000 nM
14 | C[C@@H](NC(=O)[C@H](Cc1ccc(-c2ncc(-c3ccc(C(=O)NCC4CCCCC4)cc3)cn2)cc1)NC(=O)c1ccc(C(C)(C)C)s1)C(=O)O [Compound 1043] | 2500 to 5000 nM
15 | CCCCOc1ccc(-c2cnc(-c3ccc(C[C@H](NC(=O)c4ccc(C(C)(C)C)s4)C(=O)N[C@H](C)C(=O)O)cc3)nc2)cc1F [Compound 1044] | 2500 to 5000 nM
16 | CCOc1cc(OC(F)(F)F)cc(-c2cnc(-c3ccc(C[C@H](NC(=O)c4ccc(C(C)(C)C)s4)C(=O)N[C@H](C)C(=O)O)cc3)nc2)c1F [Compound 1045] | 2500 to 5000 nM
17 | C[C@@H](NC(=O)[C@H](Cc1ccc(-c2ncc(-c3ccc(C4CCCC4)cc3)cn2)cc1)NC(=O)c1ccc(C(C)(C)C)s1)C(=O)O [Compound 1046] | 800 to 2500 nM
18 | CCCCCCCOc1ccc(-c2cnc(-c3ccc(C[C@H](NC(=O)/C=C/c4ccc(OC)cc4)C(=O)N[C@H](C)C(=O)O)cc3)nc2)cc1 [Compound 1047] | 2500 to 5000 nM
19 | CCCCCCCOc1ccc(-c2cnc(-c3ccc(C[C@H](NC(=O)c4ccc(C(C)(C)C)s4)C(=O)N4C5CCC4C(C(=O)O)C5)cc3)nc2)cc1 (stereo partly drawn) [Compound 1049] | 800 to 2500 nM

Second part, the molecule after the results:

Row | EC50 | SMILES
20 | 2500 to 5000 nM | CCCCCCCOc1ccc(-c2cnc(-c3ccc(C[C@H](NC(=O)c4ccc(C(C)(C)C)s4)C(=O)N4CCCC45CNC5)cc3)nc2)cc1 [Compound 1048]
21 | 800 to 2500 nM | C[C@@H](NC(=O)[C@H](Cc1ccc(-c2ncc(/C=C\c3ccccc3)cn2)cc1)NC(=O)c1ccc(C(C)(C)C)s1)C(=O)O [Compound 1050]
22 | 5000 to 10000 nM | C[C@@H](NC(=O)[C@H](Cc1ccc(-c2ncc(/C=C\CCCc3ccccc3)cn2)cc1)NC(=O)c1ccc(C(C)(C)C)s1)C(=O)O [Compound 1051]
23 | 2500 to 5000 nM | Cc1ccc(/C=C/c2cnc(-c3ccc(C[C@H](NC(=O)c4ccc(C(C)(C)C)s4)C(=O)N[C@H](C)C(=O)O)cc3)nc2)cc1 [Compound 1052]
24 | 2500 to 5000 nM | COCCc1ccc(OCc2ccc(-c3cnc(-c4ccc(C[C@H](NC(=O)c5ccc(C(C)(C)C)s5)C(=O)N[C@H](C)C(=O)O)cc4)nc3)cc2)cc1 [Compound 1053]
25 | 2500 to 5000 nM | COc1ccc(-c2cnc(-c3ccc(C[C@H](NC(=O)c4ccc(C(C)(C)C)s4)C(=O)N[C@H](C)C(=O)O)cc3)nc2)cc1C12CC3CC(CC(C3)C1)C2 [Compound 1054]
26 | 2500 to 5000 nM | CCc1ccc(/C=C/c2cnc(-c3ccc(C[C@H](NC(=O)c4ccc(C(C)(C)C)s4)C(=O)N[C@H](C)C(=O)O)cc3)nc2)cc1 [Compound 1055]
27 | < 800 nM | CC[C@H]1CC[C@H](c2ccc(-c3cnc(-c4ccc(C[C@H](NC(=O)c5ccc(C(C)(C)C)s5)C(=O)N[C@H](C)C(=O)O)cc4)nc3)cc2)CC1 [Compound 1056, ((S)-2-(5-(tert-butyl)thiophene-2-carboxamido)-3-(4-(5-(4-((1r,4r)-4-ethylcyclohexyl)phenyl)pyrimidin-2-yl)phenyl)propanoyl)-D-alanine]
28 | < 800 nM | CC[C@H]1CC[C@H](c2ccc(-c3cnc(-c4ccc(C[C@H](NC(=O)c5ccc(C(C)(C)C)s5)C(=O)N5CC(C(=O)O)C5)cc4)nc3)cc2)CC1 [Compound 1057, 1-((S)-2-(5-(tert-butyl)thiophene-2-carboxamido)-3-(4-(5-(4-((1r,4r)-4-ethylcyclohexyl)phenyl)pyrimidin-2-yl)phenyl)propanoyl)azetidine-3-carboxylic acid]
29 | < 800 nM | CC[C@H]1CC[C@H](c2ccc(-c3cnc(-c4ccc(C[C@H](NC(=O)c5ccc(C(C)(C)C)s5)C(=O)O)cc4)nc3)cc2)CC1 [Compound 1058, (S)-2-(5-(tert-butyl)thiophene-2-carboxamido)-3-(4-(5-(4-((1r,4r)-4-ethylcyclohexyl)phenyl)pyrimidin-2-yl)phenyl)propanoic acid]
30 | 5000 to 10000 nM | CC[C@H]1CC[C@H](c2ccc(N3CCN(c4ccc(C[C@H](NC(=O)c5ccc(C(C)(C)C)s5)C(=O)O)cc4)CC3)cc2)CC1 [Compound 1059, (S)-2-(5-(tert-butyl)thiophene-2-carboxamido)-3-(4-(4-(4-((1r,4r)-4-ethylcyclohexyl)phenyl)piperazin-1-yl)phenyl)propanoic acid]
31 | 2500 to 5000 nM | CC[C@H]1CC[C@H](c2ccc(N3CCN(c4ccc(C[C@H](NC(=O)c5ccc(C(C)(C)C)s5)C(=O)N5CC(C(=O)O)C5)cc4)CC3)cc2)CC1 [Compound 1060]
32 | 2500 to 5000 nM | CCCc1ccc(-c2ccc(-c3cnc(-c4ccc(C[C@H](NC(=O)c5ccc(C(C)(C)C)s5)C(=O)O)cc4)nc3)c(F)c2)cc1 [Compound 1061]
33 | 800 to 2500 nM | CCCCCCCOc1ccc(-c2cnc(-c3ccc(C[C@H](NC(=O)c4ccc(C(C)(C)C)s4)C(=O)O)cc3)nc2)nc1 [Compound 1062, (S)-2-(5-(tert-butyl)thiophene-2-carboxamido)-3-(4-(5-(5-(heptyloxy)pyridin-2-yl)pyrimidin-2-yl)phenyl)propanoic acid]

Reference: patent US10034886B2, “GLP-1 receptor modulators” (Celgene International II SÀRL, priority 2014, dated 2018)
